Several values for one entry are separate records, joined by “and”; a condition that tells them apart may be missing. Identical values can stand only once.
Settings: Liquid; for vapor or sublimation pressure: Closed cell (Static) method; for mass density: determined from pressure vs temperature measurement to find liquid-full point for a closed cell

CO[Si](OC)(OC)OC [silicon tetramethoxide]
Settings	mass density	vapor or sublimation pressure
432.15 K	–	300 kPa
433.15 K	–	310 kPa
434.15 K	800 kg/m3	320 kPa
435.15 K	–	320 kPa
436.15 K	–	330 kPa
437.15 K	–	340 kPa
439.15 K	–	350 kPa
440.15 K	800 kg/m3	360 kPa
441.15 K	–	360 kPa
442.15 K	–	370 kPa
443.15 K	–	380 kPa
444.15 K	–	390 kPa
445.15 K	–	400 kPa
447.15 K	–	410 kPa
448.15 K	–	410 kPa
449.15 K	–	420 kPa
450.15 K	–	430 kPa
451.15 K	–	440 kPa
452.15 K	–	450 kPa
453.15 K	–	460 kPa
454.15 K	–	470 kPa
456.15 K	–	480 kPa
457.15 K	–	490 kPa
458.15 K	–	500 kPa
459.15 K	–	510 kPa
460.15 K	–	520 kPa
461.15 K	–	530 kPa
462.15 K	–	550 kPa
463.15 K	750 kg/m3 and 770 kg/m3	560 kPa
465.15 K	–	570 kPa
466.15 K	–	580 kPa
467.15 K	–	590 kPa
468.15 K	–	610 kPa
469.15 K	–	620 kPa
470.15 K	–	630 kPa
471.15 K	–	650 kPa
472.15 K	–	660 kPa
474.15 K	–	670 kPa
475.15 K	–	690 kPa
476.15 K	–	700 kPa
477.15 K	–	720 kPa
478.15 K	–	730 kPa
479.15 K	–	750 kPa
480.15 K	710 kg/m3	760 kPa
481.15 K	–	780 kPa
482.15 K	–	790 kPa
483.15 K	730 kg/m3	810 kPa
485.15 K	–	820 kPa
486.15 K	–	840 kPa
487.15 K	–	860 kPa
488.15 K	–	870 kPa
489.15 K	–	890 kPa
490.15 K	–	910 kPa
491.15 K	–	920 kPa
492.15 K	–	940 kPa
493.15 K	–	960 kPa
494.15 K	–	980 kPa
495.15 K	–	1000 kPa
497.15 K	–	1010 kPa
498.15 K	–	1030 kPa
499.15 K	–	1050 kPa
500.15 K	–	1070 kPa
501.15 K	–	1090 kPa
502.15 K	690 kg/m3	1110 kPa
503.15 K	–	1130 kPa
504.15 K	–	1150 kPa
505.15 K	–	1160 kPa
506.15 K	–	1180 kPa
507.15 K	–	1200 kPa
508.15 K	–	1220 kPa
509.15 K	–	1250 kPa
510.15 K	–	1270 kPa
512.15 K	–	1280 kPa
513.15 K	–	1300 kPa
514.15 K	–	1320 kPa and 1340 kPa
516.15 K	–	1360 kPa
517.15 K	–	1380 kPa
518.15 K	–	1400 kPa
519.15 K	650 kg/m3	1420 kPa
520.15 K	–	1440 kPa
521.15 K	–	1460 kPa
522.15 K	–	1480 kPa
532.15 K	610 kg/m3	–
